Reference: ChEMBL document CHEMBL5209574, “Fluo-8 based assay for SLC24A4 using HEK293 JumpIn SLC24A4 OE cells” (2022)

Biological target: T1, Sodium/potassium/calcium exchanger 4 (Homo sapiens, UniProt Q8NFF2)
T1 sequence (Q8NFF2 whole entry): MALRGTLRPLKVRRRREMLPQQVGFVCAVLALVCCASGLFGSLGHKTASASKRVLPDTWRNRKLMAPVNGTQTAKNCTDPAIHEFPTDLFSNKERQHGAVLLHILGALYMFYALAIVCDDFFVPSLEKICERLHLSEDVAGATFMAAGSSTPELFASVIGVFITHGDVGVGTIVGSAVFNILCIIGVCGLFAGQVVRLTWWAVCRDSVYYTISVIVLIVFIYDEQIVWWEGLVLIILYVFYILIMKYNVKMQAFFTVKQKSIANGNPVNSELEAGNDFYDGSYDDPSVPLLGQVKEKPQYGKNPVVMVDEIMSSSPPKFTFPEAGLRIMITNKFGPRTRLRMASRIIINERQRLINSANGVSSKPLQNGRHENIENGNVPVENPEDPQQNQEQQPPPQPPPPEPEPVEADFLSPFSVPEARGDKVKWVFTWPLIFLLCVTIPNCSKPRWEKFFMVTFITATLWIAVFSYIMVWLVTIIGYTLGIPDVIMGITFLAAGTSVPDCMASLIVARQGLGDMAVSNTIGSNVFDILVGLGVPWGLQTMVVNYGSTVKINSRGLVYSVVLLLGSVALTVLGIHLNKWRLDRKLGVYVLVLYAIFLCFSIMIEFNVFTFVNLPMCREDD
Assay: Substrate uptake by the Sodium/Potassium/Calcium Exchanger 4 (NCKX4, SLC24A4) as assessed by Screen Questtrade mark Fluo-8 NW calcium assay kit in HEK-293 JumpIN-SLC24A4 cells (PubChem AID: 1794814)
Assay type: functional, cell-based, HEK293

EC50: 174 mM
Structure (SMILES): [Cl-].[K+] [POTASSIUM CHLORIDE]
